Results reported in patent US20240109912A1, “TRICYCLIC PYRIMIDINES AS CYCLIN-DEPENDENT KINASE 7 (CDK7) INHIBITORS” (JANSSEN PHARMACEUTICA NV, priority 2020, published 2024).
“And” between values parts separate entries of the source, which are not always exact repeats. Equal entries are not always repeated. Where two headings read alike, the source gives them in different places.

Legend:
[1] = target: CDK7/cyclinH/MAT1 trimeric complex (Homo sapiens (Human), UniProt P50613); assay: In vitro CDK7 assay, potency of irreversible covalent inhibitors (kinact/KI)
[2] = tested on: RNA polymerase II Serine 5 phosphorylation in A549 cells overexpressing CDK7 mutant (C312S); assay: Imaging-based cellular RNA PolII Ser5 phosphorylation assay in A549 cells overexpressing CDK7-mutant (C312S); assay type: cell-based, human; settings: for IC50: Homo sapiens, A549, A549 cells overexpressing CDK7 mutant (C312S), read-out: CDK7_ A549 mutant hCDK7(pIC50) (converted); for CDK7_ A549 mutant hCDK7(pIC50): A549 cells overexpressing CDK7 mutant (C312S)
Method: Data were calculated and analyzed in Phaedra.
From this an IC50 value can be obtained.
In parallel this assay was performed in A549 cells overexpressing CDK7-mutant (C312S) to evaluate the effect of the covalent bond on potency and to screen for potential off-target effects. Mutation of Cysteine to Serine (C312S), a less nucleophilic amino acid, prevents CDK7 inhibitors from covalently binding to CDK7 and from inhibiting CDK7 activity in an irreversible manner. A stably transduced A549 cell pool was generated that overexpresses CDK7 mutant (C312S), but also expresses endogenous CDK7-WT. Covalent binders targeting the cysteine at position 312 will show a shift in potency in A549 cells overexpressing mutant C312S CDK7.

[3] = tested on: RNA polymerase II Serine 5 phosphorylation (CDK7) in A549 cells
[4] = CDK7 (20 nM enz.) (KI, μM), 20 nM enz.
[5] = read-out: CDK7 (20 nM enz.) (kinact, s^−1), 20 nM enz.
[6] = read-out: CDK7 (20 nM enz.) (kinact/ KI, M^−1*s^−1), 20 nM enz.
[7] = read-out: CDK7 (kinact, s^−1), Table B
[8] = read-out: CDK7 (kinact/KI, M^−1*s^−1), Table B

CDK7/cyclinH/MAT1 trimeric complex, sequence (P50613 whole entry): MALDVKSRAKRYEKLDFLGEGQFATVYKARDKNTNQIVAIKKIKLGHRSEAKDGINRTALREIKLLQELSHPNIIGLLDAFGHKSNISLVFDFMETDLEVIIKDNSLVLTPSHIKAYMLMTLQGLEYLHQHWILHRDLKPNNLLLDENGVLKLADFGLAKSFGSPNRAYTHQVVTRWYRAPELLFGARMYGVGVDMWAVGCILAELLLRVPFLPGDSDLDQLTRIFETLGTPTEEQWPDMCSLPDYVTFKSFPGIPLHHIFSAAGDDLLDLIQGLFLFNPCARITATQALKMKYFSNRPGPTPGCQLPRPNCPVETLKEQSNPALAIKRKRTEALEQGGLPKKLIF
CDK7/cyclinH/MAT1 trimeric complex, sequence (P51946 whole entry partner): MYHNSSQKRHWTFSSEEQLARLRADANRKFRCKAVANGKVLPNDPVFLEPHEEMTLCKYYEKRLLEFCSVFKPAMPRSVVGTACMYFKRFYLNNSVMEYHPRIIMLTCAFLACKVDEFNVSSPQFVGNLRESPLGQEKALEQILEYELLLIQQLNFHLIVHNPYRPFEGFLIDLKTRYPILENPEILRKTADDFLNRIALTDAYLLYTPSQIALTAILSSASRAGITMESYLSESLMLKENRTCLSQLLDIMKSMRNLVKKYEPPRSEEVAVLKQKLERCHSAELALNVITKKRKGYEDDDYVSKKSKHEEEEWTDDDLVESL
CDK7/cyclinH/MAT1 trimeric complex, sequence (P51948 whole entry partner): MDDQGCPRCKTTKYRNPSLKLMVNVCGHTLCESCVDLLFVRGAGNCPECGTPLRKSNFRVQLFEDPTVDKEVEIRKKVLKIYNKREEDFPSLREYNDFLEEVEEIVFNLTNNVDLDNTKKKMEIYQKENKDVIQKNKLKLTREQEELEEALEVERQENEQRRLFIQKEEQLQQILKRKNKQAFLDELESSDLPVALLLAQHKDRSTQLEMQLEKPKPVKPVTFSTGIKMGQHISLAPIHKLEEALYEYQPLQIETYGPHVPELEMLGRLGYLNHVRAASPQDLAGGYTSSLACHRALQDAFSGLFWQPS

Row | Ki [1, 4] | kinact [1, 5] [s⁻¹] | kinact/KI [1, 6] [M⁻¹ s⁻¹] | IC50 [2] [nM] | IC50 [3] | SMILES | other results
1 | 0.32 µM | 5.08e-05 | 159 | > 10000 | ~1020 nM | C=CC(=O)N1CC(N2CC(c3cc(C)c4c(c3)Nc3ncnc(N5CCOCC5)c3C(C)O4)C2)C1 (centres unmarked) [compound 103] | 
2 |  |  |  | > 10000 | 2090 nM | C=CC(=O)N1CC(N2CC[C@H](c3ccc4c(c3)Nc3ncnc(N5CCOCC5)c3CO4)C2)C1 (single isomer, unassigned) [compound 9] | Ki ([1]; CDK7 (KI(μM)), Table B): 0.72 µM; kinact [1, 7]: 0.000216 s⁻¹; kinact/KI [1, 8]: 306 M⁻¹ s⁻¹
3 |  |  |  | > 10000 | 1150 nM | C=CC(=O)N1CC(N2CCC(c3ccc4c(c3)Nc3ncnc(C5CCOCC5)c3CO4)CC2)C1 [compound 38] | Ki ([1]; CDK7 (KI(μM)), Table B): 0.251 µM; kinact [1, 7]: 9.7e-05 s⁻¹; kinact/KI [1, 8]: 386 M⁻¹ s⁻¹
4 | 2.57 µM | 8.1e-05 | 31.5 | > 10000 | 3160 nM | CC#CC(=O)N1CC(N2CCC(c3cc4c(c(C)n3)O[C@@H](C)c3c(ncnc3N3CCS(=O)(=O)CC3)N4)CC2)C1 (single isomer, unassigned) [compound 140] | 
5 | 0.168 µM | 3.85e-05 | 229 | > 10000 | 5370 nM | C=CC(=O)N1CC[C@H](N2CC(c3cc4c(c(C)n3)OCc3c(ncnc3N3CCS(=O)(=O)CC3)N4)C2)C1 (single isomer, unassigned) [compound 78] | 
6 | 0.0876 µM | 7.7e-05 | 879 | > 10000 | 263 nM | C=CC(=O)N1CC(N2CCC(c3ccc4c(c3)Nc3ncnc(N5CCOCC5)c3[C@H](C)O4)CC2)C1 (single isomer, unassigned) [compound 57] | 
7 | 0.226 µM | 5.87e-05 | 260 | > 10000 | 2750 nM | C=CC(=O)N1CC(N2CC[C@H](c3cc4c(c(C)n3)OCc3c(ncnc3N3CCS(=O)(=O)CC3)N4)C2)C1 [compound 31] | 
8 | 0.13 µM | 4.5e-05 | 345 | > 10000 | 363 nM | C=CC(=O)N1CC(N2CC(c3cc(C)c4c(c3)Nc3ncnc(-c5cnn(C)c5)c3[C@@H](C)O4)C2)C1 (single isomer, unassigned) [compound 109] | 
9 | 0.0693 µM | 4.85e-05 | 699 | > 10000 | 646 nM | C=CC(=O)N1CC(N2CCC(c3cc(F)c4c(c3)Nc3ncnc(N5CCOCC5)c3CO4)CC2)C1 [compound 20] | 
10 | 0.283 µM and 0.18 µM | 6.55e-05 | 231 | > 10000 | 316 nM and 457 nM | CC#CC(=O)N1CC(N2CCC(c3cc(C)c4c(c3)Nc3ncnc(N5CCS(=O)(=O)CC5)c3[C@H](C)O4)CC2)C1 (single isomer, unassigned) [compound 150] | CDK7 (20 nM enz.) (kinact, s^−1) ([1]; 20 nM enz.): 4.7e-05 s⁻¹; CDK7 (20 nM enz.) (kinact/ KI, M^−1*s^−1) ([1]; 20 nM enz.): 261.659 M⁻¹ s⁻¹
11 | 0.175 µM | 7.35e-05 | 420 | > 10000 | 245 nM | C=CC(=O)N1CC(N2CCC(c3cc4c(c(C5CC5)c3)OCc3c(ncnc3N3CCOCC3)N4)CC2)C1 [compound 47] | 
12 | 0.0858 µM | 6.75e-05 | 786 | > 10000 | 245 nM | C=CC(=O)N1CC(N2CCC(c3cc(C#N)c4c(c3)Nc3ncnc(N5CCOCC5)c3CO4)CC2)C1 [compound 106] | 
13 | 0.542 µM | 8.14e-05 | 150 | > 10000 | 871 nM | C=CC(=O)N1CCC(N2CC(c3cc(Cl)c4c(c3)Nc3ncnc(C5CCOCC5)c3CO4)C2)CC1 [compound 19] | 
14 | 0.31 µM | 4.82e-05 | 156 | > 10000 | 363 nM | C=CC(=O)N1CC(N2CCC(c3cc(C)c4c(c3)Nc3ncnc(-c5cn(C)nc5C)c3CO4)CC2)C1 [compound 81] | 
15 | 0.208 µM | 6.38e-05 | 307 | > 10000 | ~617 nM | C=CC(=O)N1CC(N2CC[C@@H](c3cc(C)c4c(c3)Nc3ncnc(N5CCOCC5)c3CO4)C2)C1 [compound 22] | 
16 | 5.21 µM | 4.89e-05 | 9.39 | > 10000 | 4790 nM | C=CC(=O)N1CCC(N2CC(c3cc(F)c4c(c3)Nc3ncnc(N5CCOCC5)c3[C@@H](C)O4)C2)CC1 [compound 27] | 
17 |  |  |  | ~8910 | 891 nM | C=CC(=O)N1CC[C@H](N2CCC(c3ccc4c(c3)Nc3ncnc(N5CCOCC5)c3CO4)CC2)C1 [compound 5] | Ki ([1]; CDK7 (KI(μM)), Table B): 0.595 µM; kinact [1, 7]: 0.000243 s⁻¹; kinact/KI [1, 8]: 408 M⁻¹ s⁻¹

Row | Ki [1, 4] | kinact [1, 5] [s⁻¹] | kinact/KI [1, 6] [M⁻¹ s⁻¹] | IC50 [2] [nM] | IC50 [3] | SMILES | other results
18 |  |  |  | > 10000 | 5500 nM | C=CC(=O)N1CC(N2CCC(c3ccc4c(c3)Nc3ncnc(-c5ccc(=O)n(C)c5)c3CO4)CC2)C1 [compound 8] | Ki ([1]; CDK7 (KI(μM)), Table B): 0.251 µM; kinact [1, 7]: 0.000188 s⁻¹; kinact/KI [1, 8]: 749 M⁻¹ s⁻¹
19 |  |  |  | > 10000 | 347 nM | C=CC(=O)N1CC[C@@H](N2CC(c3cc4c(c(C5CC5)c3)O[C@@H](C)c3c(ncnc3N3CCS(=O)(=O)CC3)N4)C2)C1 (single isomer, unassigned) [compound 98] | 
20 |  |  |  | > 10000 | > 10000 nM | C=CC(=O)N1CC(N2CC(c3cc(C)c4c(c3)Nc3ncnc(-c5cnn(C)c5)c3[C@H](C)O4)C2)C1 (single isomer, unassigned) [compound 108] | 
21 |  |  |  | > 10000 | ~794 nM | C=CC(=O)N1CC[C@H](N2CC(c3cc4c(c(C5CC5)c3)O[C@@H](C)c3c(ncnc3N3CCS(=O)(=O)CC3)N4)C2)C1 (single isomer, unassigned) [compound 99] | 
22 |  |  |  | 7240 | ~12.9 nM | Cc1cc(C2CN([C@@H]3CCN(C(=O)C#CCCN(C)C)C3)C2)cc2c1O[C@H](C)c1c(ncnc1N1CCS(=O)(=O)CC1)N2 (single isomer, unassigned) [compound 177] | 
23 |  |  |  |  | 162 nM | CC#CC(=O)N1CC[C@@H](N2CC(c3cc(C)c4c(c3)Nc3ncnc(N5CCS(=O)(=O)CC5)c3[C@@H](C)O4)C2)C1 [compound 141] | CDK7_ A549 mutant hCDK7(pIC50) [2]: <5
24 |  |  |  | > 10000 | ~31.6 nM | CCC#CC(=O)N1CC(N2CCC(c3cc(C)c4c(c3)Nc3ncnc(N5CCS(=O)(=O)CC5)c3[C@@H](C)O4)CC2)C1 [compound 163] | 
25 |  |  |  | > 10000 | 132 nM | CCC#CC(=O)N1CC[C@H](N2CC(c3cc(C)c4c(c3)Nc3ncnc(N5CCS(=O)(=O)CC5)c3[C@@H](C)O4)C2)C1 (single isomer, unassigned) [compound 168] | 
26 |  |  |  | 4570 | ~14.5 nM | CC#CC(=O)N1CC[C@@](C)(N2CCC(c3cc(C)c4c(c3)Nc3ncnc(N5CCS(=O)(=O)CC5)c3[C@@H](C)O4)CC2)C1 (single isomer, unassigned) [compound 145] | 
27 |  |  |  |  | 74.1 nM | CC#CC(=O)N1CC(N2CCC(c3cc(C)c4c(c3)Nc3ncnc(N5CCS(=O)(=O)CC5)c3[C@@H](C)O4)CC2)C1 [compound 158] | CDK7_ A549 mutant hCDK7(pIC50) [2]: ~5.22
28 |  |  |  | > 10000 | 912 nM | CC#CC(=O)N1CC(OC2CCN(c3cc(C)c4c(c3)Nc3ncnc(N5CCS(=O)(=O)CC5)c3[C@@H](C)O4)CC2)C1 [compound 143] | 
29 |  |  |  | 8510 | < 9.77 nM | Cc1cc(C2CN([C@@H]3CCN(C(=O)C#CCN(C)C)C3)C2)cc2c1O[C@H](C)c1c(ncnc1N1CCS(=O)(=O)CC1)N2 (single isomer, unassigned) [compound 171] | 
30 |  |  |  | > 10000 | 53.7 nM | [2H]C([2H])([2H])C#CC(=O)N1CC(N2CCC(c3cc(C)c4c(c3)Nc3ncnc(N5CCS(=O)(=O)CC5)c3[C@@H](C)O4)CC2)C1 [compound 164] | 
31 |  |  |  | > 10000 | 83.2 nM | CC#CC(=O)N1CC[C@H](N2CCC(c3cc(C)c4c(c3)Nc3ncnc(N5CCS(=O)(=O)CC5)c3CO4)CC2)C1 (single isomer, unassigned) [compound 134] | 
32 |  |  |  | 4370 | < 2.45 nM | CC#CC(=O)N1CC[C@](C)(N2CCC(c3cc(C)c4c(c3)Nc3ncnc(N5CCS(=O)(=O)CC5)c3[C@@H](C)O4)CC2)C1 (single isomer, unassigned) [compound 146] | 
33 |  |  |  |  | 389 nM | CC#CC(=O)N1CCOC([C@H]2C[C@@H](c3cc(C)c4c(c3)Nc3ncnc(N5CCS(=O)(=O)CC5)c3[C@@H](C)O4)C2)C1 (single isomer, unassigned) [compound 188] | CDK7_ A549 mutant hCDK7(pIC50) [2]: <5
34 |  |  |  | > 10000 | 87.1 nM | C=CC(=O)N1CC(N2CCC(c3cc(C)c4c(c3)Nc3ncnc(N5CCOC6(COC6)C5)c3CO4)CC2)C1 [compound 68] | 

Row | SMILES | Ki [1, 4] | kinact [1, 5] [s⁻¹] | kinact/KI [1, 6] [M⁻¹ s⁻¹] | IC50 [2] [nM] | IC50 [3] | other results
35 | CC#CC(=O)N1CC(N2C3CCC2CC(c2cc(C)c4c(c2)Nc2ncnc(N5CCS(=O)(=O)CC5)c2[C@@H](C)O4)C3)C1 (mixture of isomers) [compound 182] |  |  |  | 6030 | ~72.4 nM | 
36 | CC#CC(=O)N1CC(N2C3CCC2CC(c2cc(C)c4c(c2)Nc2ncnc(N5CCS(=O)(=O)CC5)c2[C@@H](C)O4)C3)C1 (mixture of isomers) [compound 183] |  |  |  |  | 347 nM | CDK7_ A549 mutant hCDK7(pIC50) [2]: <5
